The source of these data is ChEMBL document CHEMBL2074319, “The antiviral nucleotide analogs cidofovir and adefovir are novel substrates for human and rat renal organic anion transporter 1” (Mol Pharmacol, 1999).

Broadly, the Km is the concentration of substrate that gives half-maximal velocity.

Data set [1] has as its target T1, Solute carrier family 22 member 6 (Homo sapiens, UniProt Q4U2R8).
T1 sequence (Q4U2R8 whole entry): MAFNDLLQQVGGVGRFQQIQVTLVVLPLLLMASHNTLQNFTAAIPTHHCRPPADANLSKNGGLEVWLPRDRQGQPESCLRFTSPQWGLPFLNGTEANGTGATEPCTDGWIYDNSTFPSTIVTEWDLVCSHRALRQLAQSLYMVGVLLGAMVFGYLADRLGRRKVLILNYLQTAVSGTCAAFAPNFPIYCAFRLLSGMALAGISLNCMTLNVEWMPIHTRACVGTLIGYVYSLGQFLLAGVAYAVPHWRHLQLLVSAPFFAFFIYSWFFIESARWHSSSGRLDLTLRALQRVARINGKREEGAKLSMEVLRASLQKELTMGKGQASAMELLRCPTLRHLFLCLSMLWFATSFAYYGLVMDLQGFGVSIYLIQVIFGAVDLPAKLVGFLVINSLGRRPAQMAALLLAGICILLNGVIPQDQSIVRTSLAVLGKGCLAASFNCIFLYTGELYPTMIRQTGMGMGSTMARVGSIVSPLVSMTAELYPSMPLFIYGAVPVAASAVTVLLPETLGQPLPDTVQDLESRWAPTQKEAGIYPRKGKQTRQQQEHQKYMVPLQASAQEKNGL
Description: TP_TRANSPORTER: inhibition of PAH uptake (PAH: 50 uM, 2,4-D: 1000 uM) in Xenopus laevis oocytes. The class given is functional, cell-based. Particulars: oocyte.

Data set [2] concerns the target T1, Solute carrier family 22 member 6. Description: TP_TRANSPORTER: inhibition of PAH uptake (PAH: 50 uM, alpha-KG: 1000 uM) in Xenopus laevis oocytes. The format is functional, cell-based. Particulars: oocyte.
Data set [3] has the same target. Description: TP_TRANSPORTER: inhibition of PAH uptake (PAH: 50 uM, BCG: 1000 uM) in Xenopus laevis oocytes. The class given is functional, cell-based. Particulars: oocyte.
For data set [4] the target is unchanged. Description: (§1) TP_TRANSPORTER: uptake in Xenopus laevis oocytes. The class given is functional, cell-based. The following applies: oocyte.
For data set [5], the target named is T2, Solute carrier family 22 member 6 (Rattus norvegicus, UniProt O35956).
T2 sequence (O35956 whole entry): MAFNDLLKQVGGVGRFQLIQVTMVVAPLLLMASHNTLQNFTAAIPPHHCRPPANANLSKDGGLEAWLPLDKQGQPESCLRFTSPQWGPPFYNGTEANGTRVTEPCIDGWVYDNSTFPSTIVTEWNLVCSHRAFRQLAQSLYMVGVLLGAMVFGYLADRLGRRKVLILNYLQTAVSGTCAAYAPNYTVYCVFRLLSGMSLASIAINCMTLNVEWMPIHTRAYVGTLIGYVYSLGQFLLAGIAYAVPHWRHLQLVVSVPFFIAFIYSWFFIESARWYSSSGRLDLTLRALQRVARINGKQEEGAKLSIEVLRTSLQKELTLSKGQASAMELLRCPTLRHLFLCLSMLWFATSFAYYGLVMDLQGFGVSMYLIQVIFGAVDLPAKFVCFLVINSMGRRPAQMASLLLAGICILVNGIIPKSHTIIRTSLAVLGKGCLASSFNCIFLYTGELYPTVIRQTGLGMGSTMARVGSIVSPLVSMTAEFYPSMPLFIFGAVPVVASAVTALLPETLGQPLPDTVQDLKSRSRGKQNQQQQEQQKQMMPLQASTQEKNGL
The data set is described as §1. The format is functional, cell-based. Particulars: oocyte.

Substrate in data set [6]: Nc1ccn(C[C@@H](CO)OCP(=O)(O)O)c(=O)n1
The data set is described as §1. The class given is functional, cell-based, Oocyte.

Substrate in data set [7]: Nc1ncnc2c1ncn2CCOCP(=O)(O)O
Described as §1. The format is functional, cell-based, Oocyte.

`O=C(O)COc1ccc(Cl)cc1Cl` [2,4-DICHLOROPHENOXYACETIC ACID]: the Activity entry in data set [1] was “inhibitor [(at a rough estimate) <5 % of control]”.
As to `O=C(O)CCC(=O)C(=O)O` [ALPHA-KETOGLUTARIC ACID], the Activity entry in data set [2] was “inhibitor [(at a rough estimate) 5 % of control]”.
Take `Cc1c(C2(c3cc(Br)c(O)c(Br)c3C)OS(=O)(=O)c3ccccc32)cc(Br)c(O)c1Br` [BROMCRESOL GREEN]: in data set [3], the Activity result is “inhibitor [(at a rough estimate) <5 % of control]”.
As to `Nc1nc(N)c2ccn(CCOCP(=O)(O)O)c2n1`, the Activity result in data set [4] and in data set [5] was “substrate [+]” in each case.
`Nc1nc2c(ncn2CCOCP(=O)(O)O)c(=O)[nH]1` [GS-438]: the Activity entry in data set [4] and in data set [5] was “substrate [+]” throughout.

B1: Solute carrier family 22 member 6 (Rattus norvegicus) (protein)
chain: MAFNDLLKQVGGVGRFQLIQVTMVVAPLLLMASHNTLQNFTAAIPPHHCRPPANANLSKDGGLEAWLPLDKQGQPESCLRFTSPQWGPPFYNGTEANGTRVTEPCIDGWVYDNSTFPSTIVTEWNLVCSHRAFRQLAQSLYMVGVLLGAMVFGYLADRLGRRKVLILNYLQTAVSGTCAAYAPNYTVYCVFRLLSGMSLASIAINCMTLNVEWMPIHTRAYVGTLIGYVYSLGQFLLAGIAYAVPHWRHLQLVVSVPFFIAFIYSWFFIESARWYSSSGRLDLTLRALQRVARINGKQEEGAKLSIEVLRTSLQKELTLSKGQASAMELLRCPTLRHLFLCLSMLWFATSFAYYGLVMDLQGFGVSMYLIQVIFGAVDLPAKFVCFLVINSMGRRPAQMASLLLAGICILVNGIIPKSHTIIRTSLAVLGKGCLASSFNCIFLYTGELYPTVIRQTGLGMGSTMARVGSIVSPLVSMTAEFYPSMPLFIFGAVPVVASAVTALLPETLGQPLPDTVQDLKSRSRGKQNQQQQEQQKQMMPLQASTQEKNGL
For B1, the Km in data set [6] was 238 µM; in data set [7], 270 µM.

B2: Solute carrier family 22 member 6 (Homo sapiens) (protein)
chain: MAFNDLLQQVGGVGRFQQIQVTLVVLPLLLMASHNTLQNFTAAIPTHHCRPPADANLSKNGGLEVWLPRDRQGQPESCLRFTSPQWGLPFLNGTEANGTGATEPCTDGWIYDNSTFPSTIVTEWDLVCSHRALRQLAQSLYMVGVLLGAMVFGYLADRLGRRKVLILNYLQTAVSGTCAAFAPNFPIYCAFRLLSGMALAGISLNCMTLNVEWMPIHTRACVGTLIGYVYSLGQFLLAGVAYAVPHWRHLQLLVSAPFFAFFIYSWFFIESARWHSSSGRLDLTLRALQRVARINGKREEGAKLSMEVLRASLQKELTMGKGQASAMELLRCPTLRHLFLCLSMLWFATSFAYYGLVMDLQGFGVSIYLIQVIFGAVDLPAKLVGFLVINSLGRRPAQMAALLLAGICILLNGVIPQDQSIVRTSLAVLGKGCLAASFNCIFLYTGELYPTMIRQTGMGMGSTMARVGSIVSPLVSMTAELYPSMPLFIYGAVPVAASAVTVLLPETLGQPLPDTVQDLESRWAPTQKEAGIYPRKGKQTRQQQEHQKYMVPLQASAQEKNGL
As to B2, the Km in data set [6] was 46 µM; in data set [7], 30 µM.
